Test results taken from paper PMC13028883 (Pharmaceuticals, 2026).

Assay: Pharmacokinetics of anthraquinones in plasma of cholestatic rats after oral DH, DH+MX or DHXSD
Type: in vivo, rat
Settings: oral DH 1.2 g/kg, mean ± SD, n = 6
Procedure: Cholestasis was established in rats through a single oral dose of ANIT (60 mg/kg in olive oil). […] Sequential blood samples were obtained at 5, 15, 30 min, and 1, 2, 4, 6, 8, 12, 24, and 36 h after administration. Plasma was separated by centrifugation and deproteinized by adding a 3:1 (v/v) ratio of acetonitrile containing 5 ng/mL IS1. Ultra-performance liquid chromatography–tandem mass spectrometry analysis was performed on the supernatants following a centrifugation, employing the described analytical approach [29].
Pharmacokinetic parameters were calculated using Drug And Statistics software (version 3.0). Intergroup comparisons were performed by one-way ANOVA followed by Tukey’s post hoc test for multiple comparisons. A p-value < 0.05 was considered statistically significant.

Question: For `O=C1c2cccc(O)c2C(=O)c2c(O)cc(CO)cc21` [Aloe emodin, aloe emodin], which t1/2 is on record?
Answer: 4.88 ± 0.97 h
